Measurements published in patent US20240166609A1, “ANTIBACTERIAL COMPOUNDS” (BLACKSMITH MEDICINES, INC., priority 2021, published 2024).
In brackets after ≈: the same amount, converted by molar mass.

Columns and labels:
Experiment in all cases: Bacterial susceptibility testing, MIC by broth microdilution (CLSI)
Type in all cases: cell-based
[1] = tested on: K. pneumoniae ATCC13883; conditions: Klebsiella pneumoniae, 35° C., 18-24 h, read-out: MIC (μg/mL) K. pneumoniae ATCC13883
Experimental: (§1) Minimal inhibitory concentrations (MIC) were determined by the broth microdilution method in accordance with the Clinical and Laboratory Standards Institute (CLSI) guidelines. In brief, organism suspensions were adjusted to a final inoculum between 3×10^5 and 7×10^5 colony-forming units (CFU)/mL. Drug dilutions and inocula were made in sterile, cation adjusted Mueller-Hinton Broth (Beckton Dickinson). In wells, an inoculum volume of 100 μL was mixed to 2 μL of DMSO with 2-fold serial dilutions of drug. All inoculated microdilution trays were incubated in ambient air at 35° C. for 18-24 h. Following incubation, the lowest concentration of the drug that prevented visible growth (OD600 nm<0.05) was recorded as the MIC. Performance of the assay was monitored by the use of laboratory quality-control strains and compounds with defined MIC spectrum, in accordance with CLSI guidelines

[2] = tested on: P. aeruginosa 209 PAO1; conditions: Pseudomonas aeruginosa, 35° C., 18-24 h, read-out: MIC (μg/mL) P. aeruginosa 209 PAO1
Experimental: as §1

[3] = tested on: P. aeruginosa ATCC27835; conditions: Pseudomonas aeruginosa, 35° C., 18-24 h, read-out: MIC (μg/mL) P. aeruginosa ATCC27835
Experimental: as §1

[4] = tested on: E. coli ATCC25922; conditions: Escherichia coli, 35° C., 18-24 h, read-out: MIC (μg/mL) E. coli ATCC25922
Experimental: as §1

| MIC [1] [µg/mL] | MIC [2] [µg/mL] | MIC [3] [µg/mL] | MIC [4] [µg/mL] | Structure (SMILES) |
| --- | --- | --- | --- | --- |
| 2 (≈ 4.27 µM) | 4 (≈ 8.54 µM) | 2 (≈ 4.27 µM) | 0.5 (≈ 1.07 µM) | C[C@H](O)c1nccn1[C@@H](C#Cc1ccc(-c2ccc(C3CC(NC(=O)CC#N)C3)cc2)cc1)CO (stereo partly drawn) [Compound 40, 2-cyano-N-(3-(4′-((S)-4-hydroxy-3-(2-((S)-1-hydroxyethyl)-1H-imidazol-1-yl)but-1-yn-1-yl)-[1,1′-biphenyl]-4-yl)cyclobutyl)acetamide] |
| 1 (≈ 2.09 µM) | 1 (≈ 2.09 µM) | 2 (≈ 4.17 µM) | 0.25 (≈ 0.521 µM) | C[C@H](O)c1nccn1[C@@H](C#Cc1ccc(-c2ccc([C@H]3C[C@H](NS(C)(=O)=O)C3)cc2)cc1)CO [Compound 36, N-((1S,3r)-3-(4′-((S)-4-hydroxy-3-(2-((S)-1-hydroxyethyl)-1H-imidazol-1-yl)but-1-yn-1-yl)-[1,1′-biphenyl]-4-yl)cyclobutyl)methanesulfonamide] |
| 0.5 (≈ 1.24 µM) | 0.5 (≈ 1.24 µM) | 2 (≈ 4.97 µM) | – | C[C@H](O)c1nccn1[C@@H](C#Cc1ccc(-c2ccc(C3CC(O)C3)cc2)cc1)CO (stereo partly drawn) [Compound 30, 3-(4′-((S)-4-hydroxy-3-(2-((S)-1-hydroxyethyl)-1H-imidazol-1-yl)but-1-yn-1-yl)-[1,1′-biphenyl]-4-yl)cyclobutan-1-ol] |
| 0.5 (≈ 1.1 µM) | 1 (≈ 2.2 µM) | 4 (≈ 8.8 µM) | – | C[C@H](O)c1nccn1[C@@H](C#Cc1ccc(-c2ccc(C3CC(NCCC#N)C3)cc2)cc1)CO (stereo partly drawn) [Compound 32, 3-((3-(4′-((S)-4-hydroxy-3-(2-((S)-1-hydroxyethyl)-1H-imidazol-1-yl)but-1-yn-1-yl)-[1,1′-biphenyl]-4-yl)cyclobutyl)amino)propanenitrile] |
| 0.5 (≈ 1.13 µM) | 2 (≈ 4.54 µM) | 4 (≈ 9.08 µM) | – | C[C@H](O)c1nccn1[C@@H](C#Cc1ccc(-c2ccc(C3CC(NCC#N)C3)cc2)cc1)CO (stereo partly drawn) [Compound 28, 2-((3-(4′-((S)-4-hydroxy-3-(2-((S)-1-hydroxyethyl)-1H-imidazol-1-yl)but-1-yn-1-yl)-[1,1′-biphenyl]-4-yl)cyclobutyl)amino)acetonitrile] |
| 0.25 (≈ 0.537 µM) | 2 (≈ 4.3 µM) | 4 (≈ 8.59 µM) | – | C[C@H](O)c1nccn1[C@@H](C#Cc1ccc(-c2ccc(C3CC(NCC(F)F)C3)cc2)cc1)CO (stereo partly drawn) [Compound 31, (S)-4-(4′-(3-((2,2-difluoroethyl)amino)cyclobutyl)-[1,1′-biphenyl]-4-yl)-2-(2-((S)-1-hydroxyethyl)-1H-imidazol-1-yl)but-3-yn-1-ol] |
| 4 (≈ 8.5 µM) | 2 (≈ 4.25 µM) | 2 (≈ 4.25 µM) | – | C[C@H](O)c1nccn1[C@@H](C#Cc1ccc(-c2ccc(C3CC(NC(C#N)CO)C3)cc2)cc1)CO (stereo partly drawn) [Compound 33, 3-hydroxy-2-((3-(4′-((S)-4-hydroxy-3-(2-((S)-1-hydroxyethyl)-1H-imidazol-1-yl)but-1-yn-1-yl)-[1,1′-biphenyl]-4-yl)cyclobutyl)amino)propanenitrile] |

Second part, the molecule before the results:

| Structure (SMILES) | MIC [1] [µg/mL] | MIC [2] [µg/mL] | MIC [3] [µg/mL] | MIC [4] [µg/mL] |
| --- | --- | --- | --- | --- |
| C[C@H](O)c1nccn1[C@@H](C#Cc1ccc(-c2ccc(C3CC(NCc4ncon4)C3)cc2)cc1)CO (stereo partly drawn) [Compound 29, (S)-4-(4′-(3-(((1,2,4-oxadiazol-3-yl)methyl)amino)cyclobutyl)-[1,1′-biphenyl]-4-yl)-2-(2-((S)-1-hydroxyethyl)-1H-imidazol-1-yl)but-3-yn-1-ol] | 0.5 (≈ 1.03 µM) | 2 (≈ 4.14 µM) | 2 (≈ 4.14 µM) | – |
| C[C@H](O)c1nccn1[C@@H](C#Cc1ccc(-c2ccc(O[C@@H]3COC[C@H]3O)cc2)cc1)CCO [Compound 43, (3R,4R)-4-((4′-((R)-5-hydroxy-3-(2-((S)-1-hydroxyethyl)-1H-imidazol-1-yl)pent-1-yn-1-yl)-[1,1′-biphenyl]-4-yl)oxy)tetrahydrofuran-3-ol] | 2 (≈ 4.46 µM) | 4 (≈ 8.92 µM) | 2 (≈ 4.46 µM) | 1 (≈ 2.23 µM) |
| C[C@H](O)c1nccn1[C@@H](C#Cc1ccc(-c2ccc(C3CC(N[C@H]4COC[C@@H]4O)C3)cc2)cc1)CO (stereo partly drawn) [Compound 38, (3R,4S)-4-((3-(4′-((S)-4-hydroxy-3-(2-((S)-1-hydroxyethyl)-1H-imidazol-1-yl)but-1-yn-1-yl)-[1,1′-biphenyl]-4-yl)cyclobutyl)amino)tetrahydrofuran-3-ol] | 8 (≈ 16.4 µM) | 4 (≈ 8.2 µM) | 4 (≈ 8.2 µM) | 2 (≈ 4.1 µM) |
| C[C@H](O)c1nccn1[C@@H](C#Cc1ccc(-c2ccc(C3CC(NCc4noc(C(N)=O)n4)C3)cc2)cc1)CO (stereo partly drawn) [Compound 35, 3-(((3-(4′-((S)-4-hydroxy-3-(2-((S)-1-hydroxyethyl)-1H-imidazol-1-yl)but-1-yn-1-yl)-[1,1′-biphenyl]-4-yl)cyclobutyl)amino)methyl)-1,2,4-oxadiazole-5-carboxamide] | 2 (≈ 3.8 µM) | 4 (≈ 7.6 µM) | 4 (≈ 7.6 µM) | 0.5 (≈ 0.949 µM) |
| C[C@H](O)c1nccn1[C@@H](C#Cc1ccc(-c2ccc(O[C@@H]3C[C@H]3N)cc2)cc1)CO (racemic) [Compound 4, (S)-4-(4′-((trans)-2-aminocyclopropoxy)-[1,1′-biphenyl]-4-yl)-2-(2-((S)-1-hydroxyethyl)-1H-imidazol-1-yl)but-3-yn-1-ol] | 0.5 (≈ 1.24 µM) | 2 (≈ 4.96 µM) | 2 (≈ 4.96 µM) | 0.25 (≈ 0.62 µM) |
| C[C@H](O)c1nccn1CC#Cc1ccc(-c2ccc(C3CC(NCC(=N)N)C3)cc2)cc1 (stereo partly drawn) [Compound 25, (S)-2-((3-(4′-(3-(2-(1-hydroxyethyl)-1H-imidazol-1-yl)prop-1-yn-1-yl)-[1,1′-biphenyl]-4-yl)cyclobutyl)amino)acetimidamide] | 0.5 (≈ 1.17 µM) | 2 (≈ 4.68 µM) | 4 (≈ 9.36 µM) | – |
| C[C@H](O)c1nccn1[C@H](C#Cc1ccc(-c2ccc(OC[C@@H](N)CO)cc2)cc1)CO [Compound 2, (R)-4-(4′-((S)-2-amino-3-hydroxypropoxy)-[1,1′-biphenyl]-4-yl)-2-(2-((S)-1-hydroxyethyl)-1H-imidazol-1-yl)but-3-yn-1-ol] | 16 (≈ 38 µM) | 2 (≈ 4.74 µM) | 2 (≈ 4.74 µM) | 8 (≈ 19 µM) |
| C[C@H](O)c1nccn1CC#Cc1ccc(-c2ccc(O[C@@H]3COC[C@H]3O)cc2)cc1 [Compound 42, (3R,4R)-4-((4′-(3-(2-((S)-1-hydroxyethyl)-1H-imidazol-1-yl)prop-1-yn-1-yl)-[1,1′-biphenyl]-4-yl)oxy)tetrahydrofuran-3-ol] | 0.5 (≈ 1.24 µM) | 2 (≈ 4.94 µM) | 2 (≈ 4.94 µM) | 0.5 (≈ 1.24 µM) |
| C[C@H](O)c1nccn1CC#Cc1ccc(-c2ccc(C3CC(NCc4cocn4)C3)cc2)cc1 (stereo partly drawn) [Compound 27, (S)-1-(1-(3-(4′-(3-((oxazol-4-ylmethyl)amino)cyclobutyl)-[1,1′-biphenyl]-4-yl)prop-2-yn-1-yl)-1H-imidazol-2-yl)ethan-1-ol] | 0.5 (≈ 1.1 µM) | 2 (≈ 4.42 µM) | 4 (≈ 8.84 µM) | – |
| C[C@H](O)c1nccn1[C@@H](C#Cc1ccc(-c2ccc(C3CC(NC4C(O)OC(CO)C(O)C4O)C3)cc2)cc1)CO (stereo partly drawn) [Compound 39, 3-((3-(4′-((S)-4-hydroxy-3-(2-((S)-1-hydroxyethyl)-1H-imidazol-1-yl)but-1-yn-1-yl)-[1,1′-biphenyl]-4-yl)cyclobutyl)amino)-6-(hydroxymethyl)tetrahydro-2H-pyran-2,4,5-triol] | 32 (≈ 56.8 µM) | 4 (≈ 7.1 µM) | 8 (≈ 14.2 µM) | 8 (≈ 14.2 µM) |
| C[C@H](O)c1nccn1[C@@H](C#Cc1ccc(-c2ccc(COCC(N)CO)cc2)cc1)CO (mixture of isomers) [Compound 6, (2S)-4-(4′-((2-amino-3-hydroxypropoxy)methyl)-[1,1′-biphenyl]-4-yl)-2-(2-((S)-1-hydroxyethyl)-1H-imidazol-1-yl)but-3-yn-1-ol] | 32 (≈ 73.5 µM) | 2 (≈ 4.59 µM) | 4 (≈ 9.18 µM) | 16 (≈ 36.7 µM) |
| C[C@H](O)c1nccn1CC#Cc1ccc(-c2ccc(C3CC(NCC(=O)O)C3)cc2)cc1 (stereo partly drawn) [Compound 26, (S)-(3-(4′-(3-(2-(1-hydroxyethyl)-1H-imidazol-1-yl)prop-1-yn-1-yl)-[1,1′-biphenyl]-4-yl)cyclobutyl)glycine] | 4 (≈ 9.31 µM) | 4 (≈ 9.31 µM) | 4 (≈ 9.31 µM) | – |
| C[C@H](O)c1nccn1[C@@H](C#Cc1ccc(-c2ccc(O[C@@H]3CN(CC#N)C[C@H]3O)cc2)cc1)CO [Compound 45, 2-((3R,4R)-3-hydroxy-4-((4′-((S)-4-hydroxy-3-(2-((S)-1-hydroxyethyl)-1H-imidazol-1-yl)but-1-yn-1-yl)-[1,1′-biphenyl]-4-yl)oxy)pyrrolidin-1-yl)acetonitrile] | 8 (≈ 16.9 µM) | 2 (≈ 4.23 µM) | 2 (≈ 4.23 µM) | 16 (≈ 33.9 µM) |
| COCCN1C[C@@H](O)[C@H](Oc2ccc(-c3ccc(C#C[C@@H](CO)n4ccnc4[C@H](C)O)cc3)cc2)C1 [Compound 44, (3R,4R)-4-((4′-((S)-4-hydroxy-3-(2-((S)-1-hydroxyethyl)-1H-imidazol-1-yl)but-1-yn-1-yl)-[1,1′-biphenyl]-4-yl)oxy)-1-(2-methoxyethyl)pyrrolidin-3-ol] | 4 (≈ 8.14 µM) | 4 (≈ 8.14 µM) | 4 (≈ 8.14 µM) | 2 (≈ 4.07 µM) |
| C[C@@H](O)c1nccn1[C@H](C#Cc1ccc(-c2ccc(OCC(N)CO)cc2)cc1)CO (mixture of isomers) [Compound 1, (2R)-4-(4′-(2-amino-3-hydroxypropoxy)-[1,1′-biphenyl]-4-yl)-2-(2-((R)-1-hydroxyethyl)-1H-imidazol-1-yl)but-3-yn-1-ol] | 32 (≈ 75.9 µM) | 1 (≈ 2.37 µM) | 1 (≈ 2.37 µM) | 8 (≈ 19 µM) |
